Measured values reported in ChEMBL document CHEMBL4177640, “Potential anti-proliferative agents from 1,4-benzoxazinone-quinazolin-4(3H)-one templates” (2017).

How the values were obtained:
Assay type in all cases: functional
HeLa = test: Antiproliferative activity against human HeLa cells after 48 hrs by SRB cell proliferation assay
MDA-MB-231 = test: Antiproliferative activity against human MDA-MB-231 cells after 48 hrs by SRB cell proliferation assay; details: MDA-MB-231, 48 h
A549 = test: Antiproliferative activity against human A549 cells after 48 hrs by SRB cell proliferation assay; details: A549, 48 h

| SMILES | GI50 (HeLa) [nM] | GI50 (MDA-MB-231) [nM] | GI50 (A549) [nM] |
| --- | --- | --- | --- |
| CCOc1ccc(-c2nc3ccccc3c(=O)n2C/C=C/c2ccc(C(=O)CN3C(=O)COc4ccccc43)cc2)cc1 | 1050 | 1130 | 1000 |
| COc1ccc(-c2nc3ccccc3c(=O)n2C/C=C/c2ccc(C(=O)CN3C(=O)COc4ccccc43)cc2)cc1 | 1030 | 3600 | 1500 |
| O=C(CN1C(=O)COc2ccccc21)c1ccc(/C=C/Cn2c(-c3ccc(C(F)(F)F)cc3)nc3ccccc3c2=O)cc1 | 1320 | 580 | 930 |
| O=C(CN1C(=O)COc2ccccc21)c1ccc(/C=C/Cn2c(-c3ccc(Cl)cc3)nc3ccccc3c2=O)cc1 | 1100 | 2000 | 760 |
| Cc1ccc(-c2nc3ccccc3c(=O)n2C/C=C/c2ccc(C(=O)CN3C(=O)COc4ccccc43)cc2)cc1 | 1400 | 3400 | 900 |
| COc1ccc(-c2nc3ccccc3c(=O)n2C/C=C/c2ccc(C(=O)CN3C(=O)COc4ccccc43)cc2)c(OC)c1OC | 1510 | 6760 | 320 |
| O=C(CN1C(=O)COc2ccccc21)c1ccc(/C=C/Cn2c(-c3ccccc3)nc3ccccc3c2=O)cc1 | 1370 | 13400 | 1000 |

Continued, values first:

| GI50 (HeLa) [nM] | GI50 (MDA-MB-231) [nM] | GI50 (A549) [nM] | SMILES |
| --- | --- | --- | --- |
| 1020 | 1520 | 810 | O=C(CN1C(=O)COc2ccccc21)c1ccc(/C=C/Cn2c(-c3ccc(F)cc3)nc3ccccc3c2=O)cc1 |
| 660 | 8800 | 1000 | O=C(CN1C(=O)COc2ccccc21)c1ccc(/C=C/Cn2c(-c3ccc([N+](=O)[O-])cc3)nc3ccccc3c2=O)cc1 |
| 590 | 6030 | 1360 | COc1ccc(-c2nc3ccccc3c(=O)n2C/C=C/c2ccc(C(=O)CN3C(=O)COc4ccccc43)cc2)c(OC)c1 |
| 370 | 2400 | 670 | COc1ccc(-c2nc3ccccc3c(=O)n2C/C=C/c2ccc(C(=O)CN3C(=O)COc4ccccc43)cc2)c(F)c1 |
| 550 | 13000 | 610 | COc1cccc(-c2nc3ccccc3c(=O)n2C/C=C/c2ccc(C(=O)CN3C(=O)COc4ccccc43)cc2)c1 |
| 620 | 2730 | 910 | O=C(CN1C(=O)COc2ccccc21)c1ccc(/C=C/Cn2c(-c3ccc(Cl)cc3Cl)nc3ccccc3c2=O)cc1 |
| 880 | 6140 | 910 | Cc1nc2ccccc2c(=O)n1C/C=C/c1ccc(C(=O)CN2C(=O)COc3ccccc32)cc1 |
| 84 | 46 | 56 | COc1ccc(/C=C\c2cc(OC)c(OC)c(OC)c2)cc1O [COMBRETASTATIN A4] |
| < 10 | < 10 | < 10 | COC(=O)Nc1nc2cc(C(=O)c3cccs3)ccc2[nH]1 [NOCODAZOLE] |
